# In paper PMC7997155, “Permeability of the Cyanotoxin Microcystin-RR across a Caco-2 Cells Monolayer” (Toxins, 2021):
# Starred links: 1 amine or outer side, 2 acyl side, 3 side chain; linkers in the order of their positions; H or OH if unused. Positions of bridges follow the written chain, without caps; N, C: chain ends. Non-standard residues stand in square brackets, D forms with d. Residues, ends and D or L forms follow the SMILES beside them. Adda = CO[C@@H](Cc1ccccc1)[C@@H](C)/C=C(C)/C=C/[C@H](N[*:1])[C@H](C)C(=O)[*:2]; dAsp(3S-Me) = C[C@H](C(=O)[*:3])[C@@H](N[*:1])C(=O)[*:2]; d(γGlu) = O=C(O)[C@@H](CCC(=O)[*:2])N[*:1]; NMeDha = C=C(NC)C(=O)O
# Experiments:
# [1] = test system: Caco-2 cell monolayer; type: in vitro ADME, human
# [2] = Binding to plastic (preliminary experiment); type: in vitro ADME
# Description: Experiments were performed as previously described, with a few modifications, described as follows. Four solutions of MC-RR (1, 10, 25, and 55 µM) were prepared in the transport buffer (HBSS, 4-(2-Hydroxyethyl)piperazine-1-ethanesulfonic acid (HEPES) 5 mM, pH 7.4) in glass vials and loaded into the donor compartments: 300 µL in compartments A (for A–B transport experiments) and 1000 µL in compartment B (for B–A transport experiments). The final concentration of methanol in the transport buffer for all MC-RR solutions was set at 1.3%, which was previously shown not to alter the integrity of Caco-2 cell monolayers. In a preliminary experiment, the binding of MC-RR to plastic was checked and considered negligible (data not shown). At different time points (1, 2, 4, 6, and 24 h for A–B transport experiments and 1, 2, 4, and 6 h for B–A transport experiments), the whole volume of each compartment was harvested and stored in glass vials at −20 °C until analysis. Due to the toxicity of methanol 1.3% when applied in compartment B for 24 h, this time point was not performed for B–A experiments. Only Caco-2 cell monolayers with a TEER > 250 ohm.cm² before and after transport experiments were used. […]. These threshold values correspond to those preconized by the European Center for the Validation of Alternatives Methods. Four independent experiments were performed.
# [3] = test system: Caco-2 cell monolayers; settings: Caco-2 monolayers; ref historical data generated in our laboratory; cited from earlier work
# Description: Experiments were performed as previously described, with a few modifications, described as follows. Four solutions of MC-RR (1, 10, 25, and 55 µM) were prepared in the transport buffer (HBSS, 4-(2-Hydroxyethyl)piperazine-1-ethanesulfonic acid (HEPES) 5 mM, pH 7.4) in glass vials and loaded into the donor compartments: 300 µL in compartments A (for A–B transport experiments) and 1000 µL in compartment B (for B–A transport experiments). The final concentration of methanol in the transport buffer for all MC-RR solutions was set at 1.3%, which was previously shown not to alter the integrity ...
Molecule,Amount detected in the apical compartment [1],Amount detected in the basolateral compartment [1],Decrease of MC-RR amounts in the basolateral (donor) compartment [1],Involvement of an active efflux mechanism (A–B versus B–A Papp) [1],Binding to plastic [2],Papp of lucifer yellow corresponding to a TEER value of 250 ohm.cm² [3] [cm/s]
"C=C1C(=O)N[C@H](C)C(=O)N[C@@H](CCCNC(=N)N)C(=O)N[C@@H](C(=O)O)[C@H](C)C(=O)N[C@@H](CCCNC(=N)N)C(=O)N[C@@H](/C=C/C(C)=C/[C@H](C)[C@H](Cc2ccccc2)OC)[C@H](C)C(=O)N[C@@H](C(=O)O)CCC(=O)N1C [MC-RR, microcystin-RR] (R[Adda][d(γGlu)][NMeDha][dA]R[dAsp(3S-Me)]-OH; lactam N-7)",below the lower LOQ,below the lower LOQ,25 % of the loaded amount,no involvement of an active efflux mechanism,negligible,
lucifer yellow,,,,,,6e-07
